Results on 29 compounds are retold here after patent US7824866B2, “Ligand for G-protein coupled receptor GPR72 and uses thereof” (Euroscreen S.A., priority 2006, dated 2010).

T2 sequence (P30731 18-423): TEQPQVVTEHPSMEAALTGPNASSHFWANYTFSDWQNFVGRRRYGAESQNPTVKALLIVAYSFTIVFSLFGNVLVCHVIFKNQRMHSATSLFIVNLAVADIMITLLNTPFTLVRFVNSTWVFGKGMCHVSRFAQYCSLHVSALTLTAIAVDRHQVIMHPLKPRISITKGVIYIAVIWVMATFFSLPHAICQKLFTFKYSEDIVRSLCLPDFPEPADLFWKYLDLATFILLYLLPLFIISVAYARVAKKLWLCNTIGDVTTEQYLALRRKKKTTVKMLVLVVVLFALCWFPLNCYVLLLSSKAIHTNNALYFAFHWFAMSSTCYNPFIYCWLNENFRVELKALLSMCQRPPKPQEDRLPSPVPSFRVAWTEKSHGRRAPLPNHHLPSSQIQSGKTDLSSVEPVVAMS

The target of the first assay is T1, human GPR72 (Homo sapiens, UniProt Q9NYM4). The assay is described as follows: Aequorin-based functional assay: intracellular calcium release (luminescence) in CHO-K1 cells stably expressing human GPR72, mitochondrial apoaequorin and Galpha16. Type of assay: cell-based. Set-up: expressed in transfected cells.
T1 sequence (Q9NYM4 17-423): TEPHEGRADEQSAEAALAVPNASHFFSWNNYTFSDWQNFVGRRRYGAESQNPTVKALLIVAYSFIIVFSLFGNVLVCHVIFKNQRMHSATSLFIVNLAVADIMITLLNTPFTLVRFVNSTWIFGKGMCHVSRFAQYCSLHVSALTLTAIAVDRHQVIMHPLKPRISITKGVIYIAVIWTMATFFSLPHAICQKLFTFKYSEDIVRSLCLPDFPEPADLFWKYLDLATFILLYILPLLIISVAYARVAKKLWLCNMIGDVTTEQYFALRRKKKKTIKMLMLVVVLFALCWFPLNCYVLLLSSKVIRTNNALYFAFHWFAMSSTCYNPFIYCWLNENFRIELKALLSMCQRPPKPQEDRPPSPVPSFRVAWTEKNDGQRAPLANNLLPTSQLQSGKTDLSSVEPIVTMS
Details: not given
For orientation: EC50 means the concentration giving half of the maximal effect. Turning to `CCCCC/C=C\C/C=C\C/C=C\C/C=C\CCCC(=O)O` [Eicosa-5Z,8Z,11Z,14Z-tetraenoic acid], the EC50 was determined as 5 µM.
The same measure, in the same setting: the value for `CCCCC/C=C\C/C=C\C/C=C\C/C=C\CCCC(=O)NCC(=O)O` [N-arachidonoyl-glycine] was 3.5 µM; that for `CC/C=C\C/C=C\C/C=C\CCCCCCCC(=O)O` [Octadeca-9Z,12Z,15Z-trienoic acid] was 4.7 µM.

Staying with this assay, now noted: Figure 8, SAR of arachidonic acid on human GPR72 activation; CHO-K1 cells, aequorin; read-out: GPR72 EC50.
As to `CC1=C(/C=C/C(C)=C\C=C\C(C)=C\C(=O)O)C(C)(C)CCC1` [9-cis-Retinoic acid], the EC50 is 0.4 µM.
Same read-out and setting: the result for `CC1=C(/C=C/C(C)=C/C=C/C(C)=C/C(=O)O)C(C)(C)CCC1` [All-trans-retinoic acid] reads 86 µM.
The same measure, in the same setting: the value for `CC/C=C\C/C=C\C/C=C\C/C=C\C/C=C\C/C=C\CCC(=O)O` [Docosa-4Z,7Z,10Z,13Z,16Z,19Z-hexaenoic acid] was 2 µM; that for `CC/C=C\C/C=C\C/C=C\C/C=C\C/C=C\CCCCCC(=O)O` [Docosa-7Z,10Z,13Z,16Z,19Z-pentaenoic acid] was 9.3 µM.
Turning to `CC/C=C\C/C=C\C/C=C\CCCCCCCCCCCC(=O)O` [Docosa-13Z,16Z,19Z-trienoic acid], the EC50 is 25 µM.
Still for that read-out and setting: the result for `CC/C=C\C/C=C\C/C=C\C/C=C\C/C=C\CCCC(=O)O` [Eicosa-5Z,8Z,11Z,14Z,17Z-pentaenoic acid] reads 3.3 µM.
Still for that read-out and setting: the result for `CCCCCCCC/C=C\C/C=C\C/C=C\CCCC(=O)O` [Eicosa-5Z,8Z,11Z-trienoic acid] reads 6.3 µM.
`CC/C=C\C/C=C\C/C=C\C/C=C\CCCCCCC(=O)O` [Eicosa-8Z,11Z,14Z,17Z-tetraenoic acid]: the EC50 stood at 6 µM.
Still for that read-out and setting: the result for `CCCCC/C=C\C/C=C\C/C=C\CCCCCCC(=O)O` [Eicosa-8Z,11Z,14Z-trienoic acid] reads 44 µM; that for `CCCCC/C=C\C/C=C\CCCCCCCCCC(=O)O` [Eicosa-11Z,14Z-dienoic acid], 17.9 µM; that for `CCCCC/C=C\C/C=C\C/C=C\C/C=C\CCCC(=O)NCC(O)CC(=O)O` (stereo not drawn) [N-arachidonoyl-3-hydroxy-γ-aminobutyric acid], 0.7 µM.
Still for that read-out and setting: the value for `CCCCC/C=C\C/C=C\C/C=C\C/C=C\CCCC(=O)N[C@@H](C)C(=O)O` [N-arachidonoyl-L-alanine] was 2.9 µM; that for `CCCCC/C=C\C/C=C\C/C=C\C/C=C\CCCC(=O)N[C@@H](CO)C(=O)O` [N-arachidonoyl-L-serine] was 3 µM; that for `CCCCC/C=C\C/C=C\C/C=C\C/C=C\CCCC(=O)NCCS(=O)(=O)O` [N-arachidonoyl-L-taurine] was 1.3 µM.
In the case of `CCCCC/C=C\C/C=C\C/C=C\C/C=C\CCCC(=O)NCCCC(=O)O` [N-arachidonoyl-γ-aminobutyric acid], the EC50 is 4.3 µM.
On the same count and under the same terms, the value for `CCCCC/C=C\C/C=C\C/C=C\CCCCC(=O)O` [Octadeca-6Z,9Z,12Z-trienoic acid] was 0.8 µM.

Staying with this assay, now noted: Figure 9, additional PUFAs; CHO-K1 cells stably expressing human GPR72, aequorin; read-out: human GPR72 receptor EC50.
As to `CC1=C(/C=C/C(C)=C/C=C/C(C)=C\C(=O)O)C(C)(C)CCC1` [13-cis-Retinoic acid], the EC50 amounted to 16 µM.
For the compound `CCCCC/C=C\C/C=C\C/C=C\C/C=C\CCCCCC(=O)O` [Docosa-7Z,10Z,13Z,16Z-tetraenoic acid], the EC50 was determined as 10 µM.
The same measure, in the same setting: the value for `CCCCCC#CCC#CCC#CCC#CCCCC(=O)O` [Eicosa-5,8,11,14-tetraynoic acid] was 27 µM.
On the same count and under the same terms, the result for `CCCCCCCCC#CCC#CCC#CCCCC(=O)O` [Eicosa-5,8,11-triynoic acid] reads 12 µM; that for `CC/C=C\C/C=C\C/C=C\CCCCCCCCCC(=O)O` [Eicosa-11Z,14Z,17Z-trienoic acid], 25 µM.
The same measure, in the same setting: the value for `CC/C=C\C/C=C\C/C=C\C/C=C\CCCCC(=O)O` [Octadeca-6Z,9Z,12Z,15Z-tetraenoic acid] was 74 µM.

Staying with this assay, now noted: Figure 10, thiazolidinediones; CHO-K1 cells stably expressing human GPR72, aequorin; read-out: human GPR72 receptor EC50.
`CC1(COc2ccc(CC3SC(=O)NC3=O)cc2)CCCCC1` (stereo not drawn) [Ciglitazone]: the EC50 was found to be 35 µM.
With `O=C1NC(=O)C(Cc2ccc3cc(OCc4ccccc4F)ccc3c2)S1` (stereo not drawn) [MCC-555], the EC50 came out at 25 µM.

Another assay addresses T2, mouse GPR72 (Mus musculus, UniProt P30731).
T2 construct: expressed in transfected cells; host or cells: CHO-K1 cells coexpressing apoaequorin
The assay is described as follows: aequorin intracellular calcium release assay, CHO-K1 cells expressing mouse GPR72. It counts as cell-based. Particulars: CHO-K1 cells coexpressing mouse GPR72 and apoaequorin; FIG. 6. Here is the method:
The aequorin assay takes advantage of the responsiveness of mitochondrial apoaequorin to intracellular calcium release induced by the activation of GPCRs (Stables et al., 1997, Anal. Biochem. 252:115-126; Detheux et al., 2000, J. Exp. Med., 192 1501-1508; both of which are incorporated herein by reference). Briefly, GPR72 polypeptide-expressing clones are transfected to coexpress mitochondrial apoaequorin and Gα16. Cells are incubated with 5 μM Coelenterazine H (Molecular Probes) for 4 hours at room temperature, washed in DMEM-F12 culture medium and resuspended at a concentration of 0.5×10^6 cells/ml. Cells are then mixed with test agonist molecules and light emission by the aequorin is recorded with a luminometer for 30 sec. Results are expressed as Relative Light Units (RLU). […]
GPR72 expressing clones have been obtained by transfection of CHO-K1 cells to coexpressing mitochondrial apoaequorin and […], limiting dilution and selection by RT-PCR. […] A functional assay based on the luminescence of mitochondrial aequorin intracellular Ca^2+ release (Stables et al., 1997, Anal. Biochem. 252:115-126; incorporated herein by reference) was performed as described (Detheux et al., 2000, J. Exp. Med., 192 1501-1508; incorporated herein by reference). […] Results are expressed as Relative Light Units (RLU). […]
For orientation: Calcium assays in cells follow changes in intracellular calcium, usually with a dye or a luminescent sensor.
For the compound `CCCCC/C=C\C/C=C\C/C=C\C/C=C\CCCC(=O)O` [arachidonic acid, 5,8,11,14-all-cis-eicosatetraenoic acid], the “concentration at which the mouse GPR72 is specifically activated” value is reported as “around 5 micromolar”.

The target of a further assay is T1, human GPR72. The experiment in a line: aequorin intracellular calcium release assay, CHO-K1 cells expressing human GPR72. It counts as cell-based. Further details: expressed in transfected cells; host or cells: CHO-K1 cells coexpressing mitochondrial apoaequorin and a G alpha subunit (Gα16). The following applies: CHO-K1 cells coexpressing human GPR72 and apoaequorin; mock-transfected cells as control; FIG. 5. Here is the method: The aequorin assay takes advantage of the responsiveness of mitochondrial apoaequorin to intracellular calcium release induced by the activation of GPCRs (Stables et al., 1997, Anal. Biochem. 252:115-126; Detheux et al., 2000, J. Exp. Med., 192 1501-1508; both of which are incorporated herein by reference). Briefly, GPR72 polypeptide-expressing clones are transfected to coexpress mitochondrial apoaequorin and Gα16. Cells are incubated with 5 μM Coelenterazine H (Molecular Probes) for 4 hours at room temperature, washed in DMEM-F12 culture medium and resuspended at a concentration of 0.5×10^6 cells/ml. Cells are then mixed with test agonist molecules and light emission by the aequorin is recorded with a luminometer for 30 sec. Results are expressed as Relative Light Units (RLU). Controls include assays using […] not expressing GPR72 polypeptide (mock transfected), in order to exclude possible non-specific effects of the candidate compound.
GPR72 expressing clones have been obtained by transfection of CHO-K1 cells to coexpressing mitochondrial apoaequorin and […], limiting dilution and selection by RT-PCR. Positive clones were used for biological extract library screening with porcine spleen extracts prepared as described above. A functional assay based on the luminescence of mitochondrial aequorin intracellular Ca^2+ release (Stables et al., 1997, Anal. Biochem. 252:115-126; incorporated herein by reference) was performed as described (Detheux et al., 2000, J. Exp. Med., 192 1501-1508; incorporated herein by reference). Briefly, cells were collected from plates in PBS containing 5 mM EDTA, pelleted and resuspended at 5×10^6 cells/ml in DMEM-F12 medium. Cells were incubated with 5 μM Coelenterazine H (Molecular Probes) for 4 hours at room temperature. Cells were then washed in DMEM-F12 medium and resuspended at a concentration of 0.5×10^6 cells/ml. Cells were then mixed with test agonist peptides or plates containing tissue extracts and the light emission was recorded for 30 sec using a Microlumat luminometer (Perkin Elmer). Results are expressed as Relative Light Units (RLU).
After being identified from active porcine […] fraction, ability of arachidonic acid to trigger intracellular calcium release was tested on CHO-K1 cell lines coexpressing the human or the mouse GPR72 receptor and apoaequorin. We have used the aequorin assay as previously described in Detheux et al. (2000) J exp Med. 192, 1501-1508. […] Arachidonic acid was also able to activate specifically the mouse GPR72 at concentration around 5 micromolar (FIG. 6).
PUFAs were tested on CHO-K1 cells stably expressing the human GPR72 for their ability to trigger intracellular calcium using aequorin. Obtained EC50 are in the 1-20 μM range (FIG. 7).
As for `CCCCC/C=C\C/C=C\C/C=C\C/C=C\CCCC(=O)O` [arachidonic acid, 5,8,11,14-all-cis-eicosatetraenoic acid], the “concentration at which the human GPR72 is specifically activated” value was “around 5 micromolar”.

The same assay, now with this note: human GPR72 receptor; FIG. 8.
Take `CCCCC/C=C\C/C=C\C/C=C\C/C=C\CCCC(=O)NCCS(=O)(=O)O` [N-arachidonoyl-L-taurine]: the “activity on GPR72 (structure-activity relationship)” value is on record as “active”.
The same measure, in the same setting: the result for `CCCCC/C=C\C/C=C\C/C=C\C/C=C\CCCC(=O)NCC(=O)O` [N-arachidonoyl-glycine] reads “active”; that for `CCCCC/C=C\C/C=C\C/C=C\C/C=C\CCCC(=O)OC` [arachidonic acid methyl ester], “not active”.
Turning to `CCCCC/C=C\C/C=C\C/C=C\C/C=C\CCCC(=O)O` [arachidonic acid, 5,8,11,14-all-cis-eicosatetraenoic acid], the “activity on GPR72 (structure-activity relationship)” value is reported as “active”.
